Assay results: patent publication US12319939B2, “Carbonyl reductase mutant and its application” (priority 2023, dated 2025)

Experiments:
[1] = target: Candida orthopsilosis Co 90-125 carbonyl reductase CoCR 13 variant R129L/D210T/S126A, SEQ ID NO: 5 (Lodderomyces orthopsilosis, UniProt H8WZT2, D210T/R129L/S126A); assay: Enzyme kinetic parameters (NADPH consumption at 340 nm), triple mutant; type: biochemical
Source text: (§1) The present disclosure starts with the substrate channel of the carbonyl reductase protein structure of Candida orthopsilosis Co 90-125 (amino acid sequence as shown in SEQ ID NO: 1) with ID XP 003867714.1 in Genbank, analyzes the entrance segment and internal structural characteristics of the substrate channel, and performs iterative saturation mutagenesisit through semi-rational design, so as to determine that the key factor affecting the initial enzymatic properties of carbonyl reductase is the amino acids at positions R129, D210 and S126. […] On this basis, serine (Ser) at position 126 is replaced with alanine (Ala), to obtain the triple mutant R129L/D210T/S126A (amino acid sequence as shown in SEQ ID NO: 5).
(§2) While the triple mutation changed from AGC to GCG at codons 376-378 of the carbonyl reductase double mutant gene sequence, thereby replacing serine(S) with alanine (A) at position 126 of the amino acid sequence, to obtain a triple mutant, wherein its amino acid sequence is shown in SEQ ID NO: 5, and the nucleotide sequence of the coding gene is shown in SEQ ID NO: 6.
(§3) One enzyme activity unit U is defined as the amount of enzyme required to consume 1 μmol NADPH within 1 minute.
(§4) The substrate concentration was set to be 0.1-10 mM, and the rest was the same enzyme activity determination system and reaction conditions as described above.

[2] = target: Candida orthopsilosis Co 90-125 carbonyl reductase CoCR 13 (Genbank XP_003867714.1), wild type (WT), SEQ ID NO: 1 (Lodderomyces orthopsilosis, UniProt H8WZT2); assay: Enzyme kinetic parameters (NADPH consumption at 340 nm), initial carbonyl reductase; type: biochemical
Source text: On this basis, serine (Ser) at position 126 is replaced with alanine (Ala), to obtain the triple mutant R129L/D210T/S126A (amino acid sequence as shown in SEQ ID NO: 5).
Through gene mining, the carbonyl reductase gene with Genbank ID XP_003867714.1 was screened from the NCBI database. The open reading frame of this gene is 1005 bp long, the carbonyl reductase encoded by it consists of 334 amino acids, and its amino acid sequence (334aa) is:
as §3, §4

[3] = target: Candida orthopsilosis Co 90-125 carbonyl reductase CoCR 13 variant R129L/D210T, SEQ ID NO: 3 (Lodderomyces orthopsilosis, UniProt H8WZT2, D210T/R129L); assay: Enzyme kinetic parameters (NADPH consumption at 340 nm), double mutant; type: biochemical
Source text: as §1
(§5) The double mutation R129L/D210T changed the codons 385-387 of the carbonyl reductase gene sequence from CGT to CTG, thereby replacing the 129th position of the amino acid sequence from arginine (R) to leucine (L); changed the codons 628-630th position from GAT to ACC, thereby the 210th position of the amino acid sequence from aspartic acid (D) to threonine (T), to obtain an enzyme mutant, wherein its amino acid sequence is shown in SEQ ID NO: 3, and the nucleotide sequence of the coding gene is shown in SEQ ID NO: 4.
as §3, §4

CCOC(=O)CCCCC(=O)CCCl [4] = assay: as above; type: biochemical, Candida orthopsilosis Co 90-125; details: other: R129L/D210T, substrate 0.1-10 mM, PB pH 7.0, 30° C.
Source text: as §1, §5, §3, §4

CCOC(=O)CCCCC(=O)CCCl [5] = assay: Enzyme kinetic parameters (NADPH consumption at 340 nm), triple mutant; type: biochemical, Candida orthopsilosis Co 90-125; details: other: R129L/D210T/S126A, substrate 0.1-10 mM, PB pH 7.0, 30° C.
Source text: as §1, §2, §3, §4

[6] = R129L/D210T/S126A, substrate 0.1-10 mM, NADPH, PB pH 7.0, 30° C.
[7] = WT, substrate 0.1-10 mM, NADPH, PB pH 7.0, 30° C.
[8] = R129L/D210T, substrate 0.1-10 mM, NADPH, PB pH 7.0, 30° C.

With `CCOC(=O)CCCCC(=O)CCCl` [8-chloro-6-oxooctanoic acid ethyl ester] the Relative catalytic efficiency ([1]; R129L/D210T/S126A relative to WT) was 93.42, the “Catalytic efficiency (kcat/Km)” value [1, 6] was 85950 M⁻¹ s⁻¹ and the “Number of conversions (kcat)” value [1, 6] was 69.46 ± 2.50 s⁻¹. The “catalytic efficiency increase compared to the initial carbonyl reductase” value ([1]; triple mutant vs initial carbonyl reductase) was 93.42 times, the Relative catalytic efficiency ([2]; WT as reference (1.00)) was 1.00 and the “Catalytic efficiency (kcat/Km)” value [2, 7] was 920 M⁻¹ s⁻¹. For the same molecule, the “Number of conversions (kcat)” value [2, 7] was 4.7 ± 0.33 s⁻¹, the Relative catalytic efficiency ([3]; R129L/D210T relative to WT) was 31.65 and the “Catalytic efficiency (kcat/Km)” value [3, 8] was 29120 M⁻¹ s⁻¹. The “Number of conversions (kcat)” value [3, 8] was 50.60 ± 1.49 s⁻¹ and the “catalytic efficiency increase compared to the initial carbonyl reductase” value ([3]; double mutant vs initial carbonyl reductase) was 31.65 times.

In the case of “Candida orthopsilosis Co 90-125 carbonyl reductase CoCR 13 variant R129L/D210T, SEQ ID NO: 3 (Lodderomyces orthopsilosis Co 90-125; D210T/R129L)”, the Km (CCOC(=O)CCCCC(=O)CCCl [4]) is reported as 1740 ± 160 µM.

“Candida orthopsilosis Co 90-125 carbonyl reductase CoCR 13 variant R129L/D210T/S126A, SEQ ID NO: 5 (Lodderomyces orthopsilosis Co 90-125; D210T/R129L/S126A)” gave a Km (CCOC(=O)CCCCC(=O)CCCl [5]) of 810 ± 110 µM.
